Results on 8 compounds are retold here after US4713367A, “Retro-inverso analogs of the bradykinin potentiating peptide BPP5a” (Enichem S.p.A., priority 1986, dated 1987).

Data set [1] deals with angiotensin converting enzyme. Briefly: Degradation in vitro by the angiotensin converting enzyme. The following applies: in the presence of the angiotensin converting enzyme. It counts as in vitro ADME.
For data set [2], the target named is T1, angiotensin converting enzyme (Oryctolagus cuniculus, UniProt P12822).
T1 construct: The enzyme employed in this test has been isolated from rabbit lungs; from tissue; host or cells: rabbit lungs
T1 sequence (P12822 34-1310): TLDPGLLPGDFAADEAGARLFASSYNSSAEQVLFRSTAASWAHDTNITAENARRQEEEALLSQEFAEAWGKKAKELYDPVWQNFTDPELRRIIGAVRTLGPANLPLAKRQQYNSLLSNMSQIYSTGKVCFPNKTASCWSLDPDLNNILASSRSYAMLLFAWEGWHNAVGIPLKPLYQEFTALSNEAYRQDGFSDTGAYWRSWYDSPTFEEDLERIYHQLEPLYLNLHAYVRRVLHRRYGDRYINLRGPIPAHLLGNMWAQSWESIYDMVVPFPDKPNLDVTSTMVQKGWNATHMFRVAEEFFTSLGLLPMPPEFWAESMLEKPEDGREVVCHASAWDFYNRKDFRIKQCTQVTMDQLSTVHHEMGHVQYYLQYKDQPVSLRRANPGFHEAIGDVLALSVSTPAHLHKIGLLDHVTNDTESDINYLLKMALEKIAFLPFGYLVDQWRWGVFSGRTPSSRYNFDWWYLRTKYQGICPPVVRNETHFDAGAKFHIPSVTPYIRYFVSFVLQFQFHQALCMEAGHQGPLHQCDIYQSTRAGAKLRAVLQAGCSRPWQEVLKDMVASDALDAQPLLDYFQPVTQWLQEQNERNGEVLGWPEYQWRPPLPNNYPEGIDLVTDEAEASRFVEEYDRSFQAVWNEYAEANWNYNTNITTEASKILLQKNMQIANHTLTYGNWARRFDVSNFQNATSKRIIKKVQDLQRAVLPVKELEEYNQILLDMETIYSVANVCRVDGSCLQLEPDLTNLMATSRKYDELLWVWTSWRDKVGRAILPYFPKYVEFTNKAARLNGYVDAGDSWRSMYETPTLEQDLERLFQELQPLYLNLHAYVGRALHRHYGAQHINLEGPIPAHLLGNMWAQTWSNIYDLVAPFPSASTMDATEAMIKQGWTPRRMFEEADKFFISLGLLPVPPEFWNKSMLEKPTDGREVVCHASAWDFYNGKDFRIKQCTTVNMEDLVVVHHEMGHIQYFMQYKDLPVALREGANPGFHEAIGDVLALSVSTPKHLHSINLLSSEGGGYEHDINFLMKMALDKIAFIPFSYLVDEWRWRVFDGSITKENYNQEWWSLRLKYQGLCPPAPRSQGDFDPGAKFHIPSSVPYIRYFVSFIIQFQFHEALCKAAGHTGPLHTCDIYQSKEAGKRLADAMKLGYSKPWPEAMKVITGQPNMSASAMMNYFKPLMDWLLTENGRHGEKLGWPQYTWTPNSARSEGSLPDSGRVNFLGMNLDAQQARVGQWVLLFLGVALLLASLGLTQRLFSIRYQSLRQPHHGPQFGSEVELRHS
The data set is described as follows: Inhibition of the angiotensin converting enzyme (IC50). It counts as biochemical, rabbit. The following applies: for IC50: enzyme isolated from rabbit lungs (Cushman and Cheung). The text has this:
In particular, comparative experiments carried out […] in order to evaluate the ACE inhibitory activity of the compounds of the present invention gave the results reported in following table I (IC50 represents the concentration of the test compound, in μM, which inhibits the angiotensin converting enzyme by 50%. The enzyme employed in this test has been isolated from rabbit lungs according to the method by Cushman and Cheung described in Biochem. Pharmacol. 20, 1637, (1971)).

Data set [3] concerns angiotensin converting enzyme. The following applies: 15 minutes of preincubation; cited from earlier work.
The conditions of data set [4]: induced experimentally in rats; cited from earlier work.
In data set [5] the test system is bradykinin. The following applies: bradykinin injected directly into the coronary arteries; cited from earlier work.
The subject of data set [6] is angiotensin I. The following applies: infused directly into the brain; cited from earlier work.
The nature of data set [7]: Hypotensive effect in anesthetized normotensive rats. The data set is classed as in vivo, rat. The following applies: injected intravenously at 0.18 mg/Kg. The procedure:
In vivo experiments carried out in anesthetized normotensive rats confirmed a hypotensive effect of the compounds of the invention as compound (a), when injected intravenously at a dosage of 0.18 mg/Kg, produced a blood pressure decrease of about 20 mmHg.

Molecules are shown by their SMILES. *1 amine or outer side, *2 acyl side, *3 side chain or, on linkers, in order; H or OH if unused. Where a SMILES comes first, the peptide text is derived from it. [ ]: non-standard residue; d: D form. X1 = O=C([C@@H]1C[C@H](Sc2ccccc2)CN1[*:1])[*:2]; pGlu = O=C1CC[C@@H](C(=O)O)N1

`C[C@H](C(=O)N[C@H](Cc1ccccc1)NC(=O)[C@H](CCCCN)NC(=O)[C@@H]1CCC(=O)N1)C(=O)N1C[C@@H](Sc2ccccc2)C[C@H]1C(=O)O` [(b), Glp--Lys--gPhe--(R)mAla--Pro(S--Ph)--OH]: in data set [1], the “degradation by / resistance towards cleavage by ACE” value is “complete resistance”.
What is called IC50 is the concentration that inhibits the measured activity by half. The low end stands for higher potency, the high end for lower potency. In the case of `C[C@H](NC(=O)[C@H](Cc1ccccc1)NC(=O)[C@H](CCCCN)NC(=O)[C@@H]1CCC(=O)N1)C(=O)N1CCC[C@H]1C(=O)O` [(c), Glp--Lys--Phe--Ala--Pro--OH] ([pGlu]KFAP-OH), 100 nM corresponded to half-maximal inhibition in data set [2] (IC50). Moreover, the “degradation by / resistance towards cleavage by ACE” value in data set [1] is listed as “quickly degraded”.
`C[C@H](NC(=O)[C@H](Cc1c[nH]c2ccccc12)NC(=O)[C@H](CCCCN)NC(=O)[C@@H]1CCC(=O)N1)C(=O)N1CCC[C@H]1C(=O)O` [(d), Glp--Lys--Trp--Ala--Pro--OH] ([pGlu]KWAP-OH) returned an IC50 in data set [2] of 100 nM. The “degradation by / resistance towards cleavage by ACE” value in data set [1] is given as “quickly degraded”. The “inhibitory activity after preincubation with the angiotensin converting enzyme” value in data set [3] is on record as “complete loss of inhibitory activity”. Further, in data set [4], the “control of reno-vascular hypertension” value was “capable of controlling”. In addition, the “in vivo activity of bradykinin” value in data set [5] is recorded as “potentiates”. The “CNS-mediated hypertensive and tachycardic action of angiotensin I” value in data set [6] was “inhibits”.
`C[C@H](NC(=O)[C@H](Cc1ccccc1)NC(=O)[C@H](CCCCN)NC(=O)[C@@H]1CCC(=O)N1)C(=O)N1C[C@@H](Sc2ccccc2)C[C@H]1C(=O)O` [(e), Glp--Lys--Phe--Ala--Pro(S--Ph)--OH] ([pGlu]KFA[X1]-OH) displayed an IC50 in data set [2] of 60 nM. The “degradation by / resistance towards cleavage by ACE” value in data set [1] is listed as “quickly degraded”.
Take `C[C@@H](C(=O)N[C@H](Cc1ccccc1)NC(=O)[C@H](CCCCN)NC(=O)[C@@H]1CCC(=O)N1)C(=O)N1CCC[C@H]1C(=O)O` [(f), Glp--Lys--gPhe--(S)mAla--Pro--OH]: the “degradation by / resistance towards cleavage by ACE” value in data set [1] is given as “complete resistance”.
For the compound `C[C@H](C(=O)N[C@H](Cc1ccccc1)NC(=O)[C@H](CCCCN)NC(=O)[C@@H]1CCC(=O)N1)C(=O)N1CCC[C@H]1C(=O)O` [(g), Glp--Lys--gPhe--(R)mAla--Pro--OH], in data set [1], the “degradation by / resistance towards cleavage by ACE” value is recorded as “complete resistance”.
For the compound `CC(C(=O)N[C@H](Cc1ccccc1)NC(=O)[C@H](CCCCN)NC(=O)[C@@H]1CCC(=O)N1)C(=O)N1CCC[C@H]1C(=O)O` (stereo partly drawn) [Glp-Lys-gPhe-mAla-Pro-OH], the “IC50 relative to that of the natural product (BPP5a) or the uninverted peptide Glp-Lys-Phe-Ala-Pro-OH” value in data set [2] (in vitro) is “more than 1000 times higher”.
In the case of `C[C@@H](C(=O)N[C@H](Cc1ccccc1)NC(=O)[C@H](CCCCN)NC(=O)[C@@H]1CCC(=O)N1)C(=O)N1C[C@@H](Sc2ccccc2)C[C@H]1C(=O)O` [compound (a), Glp--Lys--gPhe--(S)mAla--Pro(S--Ph)--OH], in data set [1], the “degradation by / resistance towards cleavage by ACE” value was “complete resistance”. For the same compound, the blood pressure decrease result in data set [7] was “about 20 mmHg”.
